Measurements as given in US20250304587A1, “WEE1 INHIBITOR, PREPARATION THEREFOR AND USE THEREOF” (JIANGSU TASLY DIYI PHARMACEUTICAL CO., LTD., priority 2022, published 2025).

Assays:
HT-29 cells = assay: Cell Titer-Glo anti-proliferation, HT-29 cells; type: cell-based, human; details: 3 days, read-out: Anti-proliferative activity HT-29 (IC50 class)
Method: (§1) A. Evaluation of the Anti-Proliferative Effect of Compounds on BxPC3, HT-29 and OVCAR-3 Cells by the Cell Titer-Glo Method
(§2) Compound solutions of different concentration gradients were prepared. […] The cell growth group without compound was used as a positive control (maximum signal control) and the medium was used as a negative control (minimum signal control), while ensuring that the final level of DMSO in each reaction well was 0.2%. After removing the medium from the 384-well plate, 25 μl of the configured compound at different concentrations was transferred into the well plate and the compound and cells were incubated in the cell incubator at 37° C. with 5% CO2 for 3 days.
(§3) The 384-well plates were removed from the cell incubator and allowed to equilibrate for 1 h to room temperature. 25 μl of Cell Titer-Glo assay was added to each well, lysed on a shaker for 2 min and then read out (Luminescence) using a BMG PHERAStar after 10 min incubation. Calculate the inhibition rate from the luminescence signal.
(§4) to calculate the rate of inhibition of the cells by different concentrations of the compounds. The IC50 of the compound on cell activity inhibition was calculated by fitting a log(inhibitor) vs. response-Variable slope model to GraphPad Prism 6. The fitted equation was: Y=Bottom+(Top-Bottom)/(1+10^((Log IC50−X)*HillSlope)), where Y represents the rate of inhibition and X represents the concentration of the known compound after Log.

HUVEC cells = assay: Cell Titer-Glo anti-proliferation, normal cells HUVEC; type: cell-based
Method: as §2, §3, §4
(§5) B. Evaluation of the Anti-Proliferative Effect of Compounds by the Cell Titer-Glo Method on Normal Cells HUVEC and HK2.
(§6) The test method is the same as the anti-proliferative activity evaluation of tumor cells.

HK2 cells = assay: Cell Titer-Glo anti-proliferation, normal cells HK2; type: cell-based
Method: as §2, §3, §4, §5, §6

OVCAR-3 cells = assay: Cell Titer-Glo anti-proliferation, OVCAR-3 cells; type: cell-based; details: 3 days, read-out: Anti-proliferative activity OVCAR-3 (IC50 class)
Method: as §1, §2, §3, §4

BxPC3 cells = assay: Cell Titer-Glo anti-proliferation, BxPC3 cells; type: cell-based, human; details: 3 days, read-out: Anti-proliferative activity BxPC3 (IC50 class)
Method: as §1, §2, §3, §4

Wee1 protein = Wee1 protein (Homo sapiens (Human), UniProt P30291); assay: TR-FRET binding of compound to Wee1 protein and Tracer 178; details: Tracer 178, read-out: IC50, inhibitory activity against Wee1 kinase
Method: First, solutions of the compounds in different concentration gradients were prepared. The compounds were dissolved in DMSO and the compounds were diluted 4 folds with a total of 10 dose points and 2 parallel replicates for each concentration.
The IC50 for inhibition of enzyme activity by the compounds was then calculated using GraphPad Prism 6 and fitted with a log (inhibitor) vs. response-Variable slope mode. The fitting equation was: Y=Bottom+(Top−Bottom)/(1+10^((Log IC50−X)*HillSlope)), where Y represents the percentage of residual enzyme activity known and X represents the known concentration of compound after the logarithm.

plasma protein = assay: Plasma protein binding (equilibrium dialysis), mouse; details: mouse plasma, 1 μM, 5 h dialysis
Method: Sample preparation: The compound was dissolved in DMSO to a stock solution of 10 mM, then the compound was diluted with PBS to a secondary stock solution of 0.02 mM, and then the above 0.02 mM was diluted to 1 μM using blank plasma, which was the sample to be incubated.
Dialysis set-up preparation: 400 μL of blank PBS was first added to the white wells of the equilibrated dialysis plate and 200 μL of the configured plasma sample was added to the red wells, and the dialysis plate was sealed with a sealing film.
Recovery plate preparation: Two 96-well deep-well plates, labelled T0 and T5, were prepared and all plasma samples were added at n=2. 300 μL of acetonitrile (Verapamil-HCl, 4 ng/mL) was added directly to the TO plate, followed by 50 μL of blank PBS mix well for 5 min and left to stand in a 4° C. refrigerator until the end of the incubation.
Experimental Operation: The dialysis device and the T5 plate were incubated together for 5 h in a microplate thermostatic shaker (37° C., using 300 rpm or minimum speed). At the end of the incubation, 300 μL of acetonitrile (Verapamil-HCl, 4 ng/mL) was added and 50 μL of PBS solution was added. At the end of the dialysis incubation, a new 96-well deep well plate was taken. Add 50 μL of plasma well sample to the corresponding position of the 96-well plate, 300 μL of acetonitrile and 50 μL of blank PBS; take 50 μL of buffer well sample to the corresponding position of the 96-well plate, then add 300 μL of acetonitrile and 50 μL of blank plasma. Add 300 μL of acetonitrile (Verapamil-HCl, 4 ng/mL) to the plasma-containing wells of the T5 plate, and then 50 μL of PBS solution was added. Shake for 5 min to fully precipitate the proteins and centrifuge at 20,000 g for 10 min at 4° C. Add 200 μL of supernatant to 200 μL of pure water, mix well and perform LC-MS/MS analysis.
• Plasma protein binding rate=[(Rpe−Rb)/Rpe]×100% • Recovery=[(Rpe+Rb)/R5 h]×100% • Stability=(R5/R0)×100%
• Rpe=ratio of plasma-side testing sample peak area to internal standard • Rb=ratio of buffer side testing sample peak area to internal standard • R5=ratio of incubator stability sample peak area to internal standard • R0=ratio of refrigerator stability sample peak area to internal standard

Caco-2 cells = assay: Membrane permeability in Caco-2 model; type: in vitro ADME; details: for Efflux Ration: Caco2; for Papp A to B / Papp B to A: Caco2, 10 μM, 90 min
Method: Caco-2 cells were purchased from the American Model Tissue Cell Collection (Rockville, MD). The cell culture medium was modified Eagle's medium (MEM) containing 10% inactivated fetal bovine serum and 1% non-essential amino acids. […] The cells were incubated for 21-28 days after inoculation for transport experiments and the apparent permeability (Papp) of Lucifer Yellow was used to characterize and verify the compactness of the cell monolayer. […] After the incubation, dilute the samples on the apical side and basolateral side, and the concentrations of compounds on the apical and basolateral sides were detected by LC-MS/MS, and the concentrations of the compounds were quantified by standard curve.

hERG potassium channel = hERG potassium channel (Homo sapiens (Human), UniProt Q12809); assay: hERG potassium channel inhibition, patch clamp in CHO hERG cells
hERG potassium channel, sequence (Q12809 whole entry): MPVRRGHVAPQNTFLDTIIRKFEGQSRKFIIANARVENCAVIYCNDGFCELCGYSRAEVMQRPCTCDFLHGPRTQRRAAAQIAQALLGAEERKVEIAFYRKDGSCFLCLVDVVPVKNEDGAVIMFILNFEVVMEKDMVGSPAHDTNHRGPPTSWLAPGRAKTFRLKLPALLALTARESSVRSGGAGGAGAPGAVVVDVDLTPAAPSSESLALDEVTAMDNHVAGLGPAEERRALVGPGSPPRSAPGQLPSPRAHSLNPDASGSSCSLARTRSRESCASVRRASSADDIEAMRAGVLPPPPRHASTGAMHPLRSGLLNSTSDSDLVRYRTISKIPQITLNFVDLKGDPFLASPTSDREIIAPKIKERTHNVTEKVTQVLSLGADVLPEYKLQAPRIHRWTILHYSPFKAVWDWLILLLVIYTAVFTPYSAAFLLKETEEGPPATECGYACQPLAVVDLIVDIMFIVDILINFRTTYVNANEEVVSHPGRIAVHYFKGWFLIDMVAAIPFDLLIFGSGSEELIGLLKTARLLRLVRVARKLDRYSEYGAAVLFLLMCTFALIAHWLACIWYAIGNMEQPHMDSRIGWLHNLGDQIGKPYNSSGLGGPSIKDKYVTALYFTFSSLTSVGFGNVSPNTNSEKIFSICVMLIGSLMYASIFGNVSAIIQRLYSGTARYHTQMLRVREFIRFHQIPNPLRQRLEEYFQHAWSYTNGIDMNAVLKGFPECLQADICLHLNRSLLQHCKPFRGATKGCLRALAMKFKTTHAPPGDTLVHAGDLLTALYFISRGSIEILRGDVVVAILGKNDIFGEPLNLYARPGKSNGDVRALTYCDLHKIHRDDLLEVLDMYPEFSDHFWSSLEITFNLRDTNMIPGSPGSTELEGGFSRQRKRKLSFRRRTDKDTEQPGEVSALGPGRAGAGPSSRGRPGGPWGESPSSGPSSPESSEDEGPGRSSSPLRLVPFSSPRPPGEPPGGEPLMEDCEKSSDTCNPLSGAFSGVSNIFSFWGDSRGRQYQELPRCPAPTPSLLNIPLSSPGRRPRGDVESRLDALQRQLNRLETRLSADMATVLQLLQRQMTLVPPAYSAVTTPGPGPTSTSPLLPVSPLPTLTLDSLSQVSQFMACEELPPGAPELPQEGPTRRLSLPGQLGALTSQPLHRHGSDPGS

Wee1 protein, sequence (P30291 whole entry): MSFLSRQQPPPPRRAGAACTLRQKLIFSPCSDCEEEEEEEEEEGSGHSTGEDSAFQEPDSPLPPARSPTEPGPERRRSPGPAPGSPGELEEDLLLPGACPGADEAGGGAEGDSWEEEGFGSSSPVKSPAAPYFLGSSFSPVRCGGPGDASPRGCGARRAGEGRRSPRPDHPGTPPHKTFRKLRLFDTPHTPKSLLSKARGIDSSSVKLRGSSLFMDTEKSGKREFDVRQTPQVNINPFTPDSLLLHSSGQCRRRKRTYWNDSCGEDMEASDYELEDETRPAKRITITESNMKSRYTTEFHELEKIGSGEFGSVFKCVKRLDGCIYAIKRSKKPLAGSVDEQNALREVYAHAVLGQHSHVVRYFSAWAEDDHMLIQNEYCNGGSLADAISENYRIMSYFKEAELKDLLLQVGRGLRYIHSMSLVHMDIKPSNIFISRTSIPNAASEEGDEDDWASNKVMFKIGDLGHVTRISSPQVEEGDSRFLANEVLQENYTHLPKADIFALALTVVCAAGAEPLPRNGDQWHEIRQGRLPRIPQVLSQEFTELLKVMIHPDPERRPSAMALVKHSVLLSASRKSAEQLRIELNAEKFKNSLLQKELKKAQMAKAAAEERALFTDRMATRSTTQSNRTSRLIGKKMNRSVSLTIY

SMILES | IC50 (HT-29 cells) [nM] | IC50 (HUVEC cells) [nM] | IC50 (HK2 cells) [nM] | IC50 (OVCAR-3 cells) [nM] | IC50 (BxPC3 cells) [nM] | IC50 (Wee1 protein) [nM] | Plasma Protein binding (PPB) Mouse (plasma protein) [%] | Efflux Ration (Caco-2 cells) | Papp A to B (Caco-2 cells) | Papp B to A (Caco-2 cells) | hERG Inhibition (hERG potassium channel; test concentration 5 μM) [%] | hERG Inhibition (hERG potassium channel; test concentration 20 μM) [%]
C=CCn1c(=O)c2cnc(Nc3ccc(N4C[C@H]5CN(C)C[C@H]5C4)cc3)nc2n1-c1ccc2c(n1)C(O)(C(F)(F)F)C1(CC1)C2 (mixture of isomers) [Compound 55] | 100 to 1000 | > 10000 | 930 | 100 to 1000 | 100 to 1000 | – | – | – | – | – | – | –
C=CCn1c(=O)c2cnc(Nc3ccc(N4CCN(C)CC4)cc3)nc2n1-c1ccc2c(n1)[C@@](C)(O)C1(CC2)CC1 [Compound 6a] | 100 to 1000 | – | – | 100 to 1000 | 1000 to 2000 | ≤ 5 | – | – | – | – | – | –
C=CCn1c(=O)c2cnc(Nc3ccc(N4CC5CC(C4)N5C(C)C)cc3)nc2n1-c1ccc2c(n1)[C@H](O)C1(CC2)CC1 [Compound 39b] | 100 to 1000 | > 10000 | 730 | 100 to 1000 | 100 to 1000 | 5 to 10 | – | – | – | – | – | –
C=CCn1c(=O)c2cnc(Nc3ccc(N4CCN(C)CC4)cc3)nc2n1-c1ccc2c(n1)N(CC)C(=O)C21CCC1 [Compound 2] | 1000 to 2000 | – | – | – | 2000 to 5000 | 10 to 100 | – | – | – | – | – | –
[2H][C@@]1(O)c2nc(-n3c4nc(Nc5ccc(N6CCC(N(C)C)CC6)c(C)c5)ncc4c(=O)n3CC=C)ccc2CCC12CC2 [Compound 41b] | – | – | – | – | – | – | 96.26 | – | – | – | – | –
C=CCn1c(=O)c2cnc(Nc3ccc(N4CCC(N(C)C)CC4)cc3)nc2n1-c1ccc2c(n1)[C@@](C)(O)C1(CC2)CC1 [Compound 65a] | 100 to 1000 | > 10000 | 700 | 100 to 1000 | 100 to 1000 | 5 to 10 | – | 9.55 | 0.96 10^−6 cm/s | 9.17 10^−6 cm/s | – | –
C=CCn1c(=O)c2cnc(Nc3ccc(N4CCN(C)CC4)cc3)nc2n1-c1ccc2c(n1)C(C)(O)C1(CC2)CC1 (stereo not shown) [Compound 6] | 100 to 1000 | – | – | 100 to 1000 | 1000 to 2000 | ≤ 5 | 97.2 | – | – | – | – | –
C=CCn1c(=O)c2cnc(Nc3ccc(N4CCN(C)[C@@H](C)C4)cc3)nc2n1-c1ccc2c(n1)C(O)(CC)C1(CC1)C2 (stereo partly shown) [Compound 30] | 100 to 1000 | – | – | 1000 to 2000 | 1000 to 2000 | ≤ 5 | – | – | – | – | – | –
C=CCn1c(=O)c2cnc(Nc3ccc(N4CCC(N(C)C)CC4)c(C)c3)nc2n1-c1ccc2c(n1)[C@H](O)C1(CC2)CC1 (single isomer, unassigned) [Compound 48b] | 100 to 1000 | – | – | 100 to 1000 | 100 to 1000 | – | – | – | – | – | 73.67 ± 0.93 | 90.92 ± 0.49
[2H][C@]1(O)c2nc(-n3c4nc(Nc5ccc(N6CC7CC(C6)N7C(C)C)cc5)ncc4c(=O)n3CC=C)ccc2CCC12CC2 [Compound 39b] | – | – | – | – | – | – | – | 35.84 | 0.38 10^−6 cm/s | 13.62 10^−6 cm/s | 47.26 ± 2.27 | 67.24 ± 1.32
C=CCn1c(=O)c2cnc(Nc3ccc(N4CCC(N(C)C)CC4)c(C)c3)nc2n1-c1ccc2c(n1)[C@@H](O)C1(CC2)CC1 (single isomer, unassigned) [Compound 41b] | 100 to 1000 | > 10000 | 550 | 100 to 1000 | 100 to 1000 | ≤ 5 | – | – | – | – | – | –
C=CCn1c(=O)c2cnc(Nc3ccc(N4CCC5(CCN(C)CC5)CC4)cc3)nc2n1-c1ccc2c(n1)[C@@H](O)C1(CC2)CC1 [Compound 37a] | 100 to 1000 | – | – | 100 to 1000 | 100 to 1000 | 5 to 10 | – | – | – | – | – | –
C=CCn1c(=O)c2cnc(Nc3ccc(N4CCN(C)CC4)cc3)nc2n1-c1ccc2c(n1)C(O)(CC)C1(CC2)CC1 (racemic) [Compound 21] | 100 to 1000 | – | – | 100 to 1000 | 1000 to 2000 | – | 98.86 | – | – | – | – | –
